Laboratory results taken from publication PMC10202359, “Nicotinamide N-methyltransferase (NNMT) regulates the glucocorticoid signaling pathway during the early phase of adipogenesis” (Scientific Reports, 2023).
Where two headings read alike, the source gives them in different places.

Assays:
human NNMT = biological target: T1, human NNMT (Homo sapiens, UniProt P40261); assay: hNNMT enzymatic modulation, RapidFire SPE LC/MS assay (Lilly); type: biochemical
T1 sequence (P40261 1-264): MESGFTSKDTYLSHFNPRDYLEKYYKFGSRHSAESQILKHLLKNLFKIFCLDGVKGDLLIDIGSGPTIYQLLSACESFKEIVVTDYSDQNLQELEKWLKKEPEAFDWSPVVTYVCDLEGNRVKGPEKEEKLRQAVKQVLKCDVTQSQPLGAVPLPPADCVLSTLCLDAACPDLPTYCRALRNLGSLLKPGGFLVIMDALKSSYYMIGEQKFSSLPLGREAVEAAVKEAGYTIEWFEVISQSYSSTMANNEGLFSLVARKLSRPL

DNMT1 = DNMT1 (Homo sapiens, UniProt P26358); assay: Methyltransferase Hot Spot radioisotope assay, DNMT1; type: biochemical; details: 10-dose, threefold dilution; CC-410 from 300 μM, control from 100 μM; substrate Poly dI-dC
Chain of DNMT1 (P26358 whole entry, species assumed): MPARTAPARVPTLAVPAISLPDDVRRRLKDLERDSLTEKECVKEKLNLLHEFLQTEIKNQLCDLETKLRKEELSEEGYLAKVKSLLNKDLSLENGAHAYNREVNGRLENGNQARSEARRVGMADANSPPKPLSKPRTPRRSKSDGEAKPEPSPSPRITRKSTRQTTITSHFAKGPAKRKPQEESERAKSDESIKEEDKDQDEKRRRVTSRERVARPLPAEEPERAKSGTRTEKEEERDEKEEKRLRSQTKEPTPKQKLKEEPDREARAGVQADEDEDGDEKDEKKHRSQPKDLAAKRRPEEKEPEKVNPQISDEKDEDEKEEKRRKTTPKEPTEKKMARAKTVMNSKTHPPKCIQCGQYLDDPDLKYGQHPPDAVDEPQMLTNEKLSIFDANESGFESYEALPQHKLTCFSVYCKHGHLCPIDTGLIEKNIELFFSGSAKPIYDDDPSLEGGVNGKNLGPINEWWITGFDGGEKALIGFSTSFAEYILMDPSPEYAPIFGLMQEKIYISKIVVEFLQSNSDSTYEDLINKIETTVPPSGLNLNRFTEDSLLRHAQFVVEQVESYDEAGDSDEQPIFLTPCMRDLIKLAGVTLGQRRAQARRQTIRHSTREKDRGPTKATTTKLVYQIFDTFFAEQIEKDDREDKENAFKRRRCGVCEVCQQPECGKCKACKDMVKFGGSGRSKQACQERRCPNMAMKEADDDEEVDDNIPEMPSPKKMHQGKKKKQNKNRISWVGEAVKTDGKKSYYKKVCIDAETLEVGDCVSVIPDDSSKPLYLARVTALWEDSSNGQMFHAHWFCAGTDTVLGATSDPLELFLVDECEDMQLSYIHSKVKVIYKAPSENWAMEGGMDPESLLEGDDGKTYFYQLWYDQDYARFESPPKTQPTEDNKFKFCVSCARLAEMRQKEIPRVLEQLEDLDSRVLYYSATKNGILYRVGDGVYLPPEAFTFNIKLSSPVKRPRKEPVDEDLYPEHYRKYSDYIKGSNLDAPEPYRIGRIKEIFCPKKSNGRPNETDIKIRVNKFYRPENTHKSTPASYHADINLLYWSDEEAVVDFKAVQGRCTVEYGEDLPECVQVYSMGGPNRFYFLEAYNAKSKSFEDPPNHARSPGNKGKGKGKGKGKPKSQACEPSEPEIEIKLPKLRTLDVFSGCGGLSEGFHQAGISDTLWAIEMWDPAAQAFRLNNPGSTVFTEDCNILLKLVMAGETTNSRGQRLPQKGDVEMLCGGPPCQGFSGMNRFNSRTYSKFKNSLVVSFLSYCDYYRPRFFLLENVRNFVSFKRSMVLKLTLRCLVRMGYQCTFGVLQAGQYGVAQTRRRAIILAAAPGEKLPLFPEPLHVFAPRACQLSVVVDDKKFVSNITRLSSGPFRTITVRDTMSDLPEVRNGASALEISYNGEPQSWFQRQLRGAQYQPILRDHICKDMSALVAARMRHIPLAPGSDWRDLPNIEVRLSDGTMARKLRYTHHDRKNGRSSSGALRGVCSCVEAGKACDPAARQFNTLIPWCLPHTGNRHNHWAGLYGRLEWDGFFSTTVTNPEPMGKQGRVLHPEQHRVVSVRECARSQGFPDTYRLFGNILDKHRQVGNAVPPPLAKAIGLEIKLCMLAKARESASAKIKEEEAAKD
Procedure: (§1) CC-410 was screened in biochemical assays for activity against a panel of 11 methyltransferases (MT) by using the radioisotope (3H-AdoMet) based MT Hot Spot Assay. All the assays were performed by Reaction Biology Corporation (RBC, Malven, PA, USA). Briefly CC-410 was incubated with the selected MTs, corresponding substrates, and radiolabeled SAM (S-Adenosyl-L-[methyl-3 H]methionine). The specific MTs assessed, and the corresponding substrates are as follows: DNMT1- Poly dl-dC, DNMT3a- Lambda DNA, DNMT3b- Lambda DNA, DOT1L- Nucleosomes, EZH2 Complex- Core Histone, METTL21A- HSPA8-[CTD], NRMT1- RCC1, PRMT3- Histone H4, PRMT5/MEP50- Histone H2A, SET1b -Core Histone Complex and SMYD2- Nucleosomes. Reaction mixtures were incubated and spotted onto filter papers, which were then washed to remove unreacted SAM, leaving the bound radiolabeled product. Detection of the radiolabeled, methylated product was performed via a nanoliter-scale radioisotope filter binding platform. […] For each assay, control compounds were included as positive controls for enzyme function and assay reproducibility. […] IC50 was calculated by non-linear least square fitting dose–response curve.

DNMT3a = biological target: T2, DNMT3a (Homo sapiens, UniProt Q9Y6K1); assay: Methyltransferase Hot Spot radioisotope assay, DNMT3a; type: biochemical; details: 10-dose, threefold dilution; CC-410 from 300 μM, control from 100 μM; substrate Lambda DNA
T2 construct: purchased Reaction Biology Corporation
T2 sequence (Q9Y6K1 whole entry, looked up, species assumed): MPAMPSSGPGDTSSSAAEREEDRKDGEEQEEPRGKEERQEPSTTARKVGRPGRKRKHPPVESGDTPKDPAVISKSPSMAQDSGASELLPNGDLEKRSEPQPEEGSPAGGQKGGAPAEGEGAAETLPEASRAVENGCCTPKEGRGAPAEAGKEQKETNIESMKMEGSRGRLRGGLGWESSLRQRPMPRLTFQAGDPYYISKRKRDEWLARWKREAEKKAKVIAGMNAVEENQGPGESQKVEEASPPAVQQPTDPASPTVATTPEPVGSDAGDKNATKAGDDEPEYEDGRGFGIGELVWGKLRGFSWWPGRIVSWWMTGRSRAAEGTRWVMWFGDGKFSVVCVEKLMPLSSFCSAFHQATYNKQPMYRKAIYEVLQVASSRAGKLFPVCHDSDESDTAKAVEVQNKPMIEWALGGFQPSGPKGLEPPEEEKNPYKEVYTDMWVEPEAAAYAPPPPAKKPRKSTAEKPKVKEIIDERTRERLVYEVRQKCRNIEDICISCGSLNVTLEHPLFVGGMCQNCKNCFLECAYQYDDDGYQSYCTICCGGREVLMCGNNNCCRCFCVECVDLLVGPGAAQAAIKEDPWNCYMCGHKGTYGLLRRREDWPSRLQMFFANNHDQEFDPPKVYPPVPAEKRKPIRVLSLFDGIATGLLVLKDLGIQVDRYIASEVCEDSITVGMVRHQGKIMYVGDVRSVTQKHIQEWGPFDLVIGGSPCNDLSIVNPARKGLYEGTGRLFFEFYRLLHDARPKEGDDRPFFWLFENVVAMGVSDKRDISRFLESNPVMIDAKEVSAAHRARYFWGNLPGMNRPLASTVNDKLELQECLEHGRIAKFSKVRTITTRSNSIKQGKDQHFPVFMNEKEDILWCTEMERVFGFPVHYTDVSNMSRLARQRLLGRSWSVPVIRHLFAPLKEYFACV
Procedure: as §1

DNMT3b = biological target: T3, DNMT3b (Homo sapiens, UniProt Q9UBC3); assay: Methyltransferase Hot Spot radioisotope assay, DNMT3b; type: biochemical; details: 10-dose, threefold dilution; CC-410 from 300 μM, control from 100 μM; substrate Lambda DNA
T3 construct: purchased Reaction Biology Corporation
Procedure: as §1

DOT1L = biological target: T4, DOT1L (Homo sapiens, UniProt Q8TEK3); assay: Methyltransferase Hot Spot radioisotope assay, DOT1L; type: biochemical; details: 10-dose, threefold dilution; CC-410 from 300 μM, control from 100 μM; substrate Nucleosomes
T4 construct: purchased Reaction Biology Corporation
T4 sequence (Q8TEK3 whole entry, species assumed): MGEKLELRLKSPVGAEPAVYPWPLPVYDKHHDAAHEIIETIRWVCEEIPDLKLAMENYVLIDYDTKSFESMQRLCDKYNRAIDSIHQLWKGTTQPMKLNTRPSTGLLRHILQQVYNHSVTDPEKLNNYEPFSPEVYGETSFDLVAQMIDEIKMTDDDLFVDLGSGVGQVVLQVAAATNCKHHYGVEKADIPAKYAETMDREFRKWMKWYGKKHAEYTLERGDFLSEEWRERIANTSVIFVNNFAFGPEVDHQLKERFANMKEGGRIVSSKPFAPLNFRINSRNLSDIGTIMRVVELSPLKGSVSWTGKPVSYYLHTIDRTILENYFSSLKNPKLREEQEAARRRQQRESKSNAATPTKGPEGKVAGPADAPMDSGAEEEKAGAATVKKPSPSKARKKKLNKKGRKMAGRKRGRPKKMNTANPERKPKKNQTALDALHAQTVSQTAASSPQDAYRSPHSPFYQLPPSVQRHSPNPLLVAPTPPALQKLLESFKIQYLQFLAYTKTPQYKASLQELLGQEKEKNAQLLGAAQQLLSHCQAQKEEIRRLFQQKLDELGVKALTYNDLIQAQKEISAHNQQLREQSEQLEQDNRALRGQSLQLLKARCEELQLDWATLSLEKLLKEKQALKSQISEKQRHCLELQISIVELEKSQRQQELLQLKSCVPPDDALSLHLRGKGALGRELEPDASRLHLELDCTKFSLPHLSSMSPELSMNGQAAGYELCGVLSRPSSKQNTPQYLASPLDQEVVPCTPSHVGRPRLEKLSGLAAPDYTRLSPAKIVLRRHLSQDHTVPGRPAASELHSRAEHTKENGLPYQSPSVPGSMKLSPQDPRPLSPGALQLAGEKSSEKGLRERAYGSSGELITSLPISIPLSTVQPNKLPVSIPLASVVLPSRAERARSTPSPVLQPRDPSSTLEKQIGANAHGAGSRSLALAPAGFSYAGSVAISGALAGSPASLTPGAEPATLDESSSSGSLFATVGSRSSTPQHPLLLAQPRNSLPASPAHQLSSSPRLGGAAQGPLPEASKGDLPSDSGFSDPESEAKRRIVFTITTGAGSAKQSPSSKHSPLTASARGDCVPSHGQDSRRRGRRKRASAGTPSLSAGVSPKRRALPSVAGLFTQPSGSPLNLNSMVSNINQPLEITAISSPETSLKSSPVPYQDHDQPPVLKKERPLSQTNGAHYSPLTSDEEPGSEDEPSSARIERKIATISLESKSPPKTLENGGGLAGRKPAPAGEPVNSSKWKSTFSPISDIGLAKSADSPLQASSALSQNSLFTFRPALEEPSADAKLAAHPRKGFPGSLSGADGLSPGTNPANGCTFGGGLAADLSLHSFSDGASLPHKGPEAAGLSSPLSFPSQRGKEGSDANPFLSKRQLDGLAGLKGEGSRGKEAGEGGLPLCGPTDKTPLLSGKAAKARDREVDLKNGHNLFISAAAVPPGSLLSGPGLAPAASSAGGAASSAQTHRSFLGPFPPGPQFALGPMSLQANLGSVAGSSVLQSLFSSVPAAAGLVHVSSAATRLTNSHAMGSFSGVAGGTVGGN
Procedure: as §1

EZH2 Complex = biological target: T5, EZH2 Complex (Homo sapiens, UniProt Q15910); assay: Methyltransferase Hot Spot radioisotope assay, EZH2 Complex; type: biochemical; details: 10-dose, threefold dilution; CC-410 from 300 μM, control from 100 μM; substrate Core Histone
T5 construct: purchased Reaction Biology Corporation
Procedure: as §1

NRMT1 = biological target: T6, NRMT1 (Homo sapiens, UniProt Q9BV86); assay: Methyltransferase Hot Spot radioisotope assay, NRMT1; type: biochemical; details: 10-dose, threefold dilution; CC-410 from 300 μM, control from 100 μM; substrate RCC1
T6 sequence (Q9BV86 1-223): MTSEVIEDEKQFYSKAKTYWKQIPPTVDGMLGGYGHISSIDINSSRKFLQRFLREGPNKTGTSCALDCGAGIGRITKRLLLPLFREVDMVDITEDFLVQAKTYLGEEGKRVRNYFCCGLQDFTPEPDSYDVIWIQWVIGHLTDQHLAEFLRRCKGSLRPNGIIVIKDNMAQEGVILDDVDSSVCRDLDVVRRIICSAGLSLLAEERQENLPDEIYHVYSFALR
Procedure: as §1

PRMT5/MEP50 = biological target: T7, PRMT5/MEP50 (Homo sapiens, UniProt O14744); assay: Methyltransferase Hot Spot radioisotope assay, PRMT5/MEP50; type: biochemical; details: 10-dose, threefold dilution; CC-410 from 300 μM, control from 100 μM; substrate Histone H2A
T7 construct: purchased Reaction Biology Corporation
T7 sequence (O14744 whole entry, species assumed): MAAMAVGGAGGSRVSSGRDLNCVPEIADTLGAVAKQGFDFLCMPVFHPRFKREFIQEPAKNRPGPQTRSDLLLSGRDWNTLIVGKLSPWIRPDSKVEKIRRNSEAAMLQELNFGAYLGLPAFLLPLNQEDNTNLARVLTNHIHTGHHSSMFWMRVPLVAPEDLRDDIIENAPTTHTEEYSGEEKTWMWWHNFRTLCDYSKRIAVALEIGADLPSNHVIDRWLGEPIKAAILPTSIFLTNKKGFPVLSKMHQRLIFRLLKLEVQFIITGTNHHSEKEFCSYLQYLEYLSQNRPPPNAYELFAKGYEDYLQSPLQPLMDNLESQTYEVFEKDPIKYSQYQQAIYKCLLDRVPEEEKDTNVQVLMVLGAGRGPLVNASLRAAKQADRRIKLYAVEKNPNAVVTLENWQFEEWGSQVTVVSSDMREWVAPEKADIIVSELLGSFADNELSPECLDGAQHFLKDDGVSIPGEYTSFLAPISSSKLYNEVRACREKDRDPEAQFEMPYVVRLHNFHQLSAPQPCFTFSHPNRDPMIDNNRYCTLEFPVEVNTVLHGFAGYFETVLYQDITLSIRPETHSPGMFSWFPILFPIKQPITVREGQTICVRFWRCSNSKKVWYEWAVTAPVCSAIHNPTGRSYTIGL
T7 sequence (Q9BQA1 whole entry partner, species assumed): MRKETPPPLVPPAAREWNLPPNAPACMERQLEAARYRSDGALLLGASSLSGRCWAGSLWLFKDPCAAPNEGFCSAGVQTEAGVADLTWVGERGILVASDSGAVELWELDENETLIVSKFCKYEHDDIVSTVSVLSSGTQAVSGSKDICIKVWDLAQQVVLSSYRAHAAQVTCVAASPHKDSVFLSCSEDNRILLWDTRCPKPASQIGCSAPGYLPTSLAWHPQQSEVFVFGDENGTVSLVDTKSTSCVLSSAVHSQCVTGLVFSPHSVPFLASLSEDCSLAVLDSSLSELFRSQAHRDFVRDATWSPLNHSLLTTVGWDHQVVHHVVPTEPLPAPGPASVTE
Procedure: as §1

SET1b Complex = biological target: T8, SET1b Complex (Homo sapiens, UniProt Q9UPS6); assay: Methyltransferase Hot Spot radioisotope assay, SET1b Complex; type: biochemical
T8 construct: purchased Reaction Biology Corporation
Procedure: as §1

SMYD2 = biological target: T9, SMYD2 (Homo sapiens, UniProt Q9NRG4); assay: Methyltransferase Hot Spot radioisotope assay, SMYD2; type: biochemical
T9 construct: purchased Reaction Biology Corporation
Procedure: as §1

3T3-L1 cells = assay: CellTiter-Blue cell viability assay, 3T3-L1; type: cell-based, mouse; details: highest concentration (1–25 uM tested), assessed at terminal differentiation
Procedure: CellTiter-Blue® Cell Viability Assay (Promega) was used following the manufacturer’s instructions. 3T3-L1 cells were seeded at a density of 2 × 10^3 cells per well in 96-well plates and cultured till confluence in standard medium. Two-day post-confluent 3T3-L1 cells were induced with DIM and treated with 1, 5, 10 and 25 µM CC-410 along with an untreated control (0.5% DMSO) in 4 different conditions: every 48 h throughout the differentiation period; once in the first 20 h following DIM stimulation; once 48 h after DIM stimulation; or after the early differentiation phase. In all cases, cell viability was assessed at terminal differentiation. Cell viability percentages were calculated by normalizing the fluorescence recorder (560/590) for the treated samples over untreated controls.

## COC(=O)CCC(C)C1CCC2C3C(N)CC4CC(OC(C)=O)CCC4(C)[C@H]3CC(N)C12C (stereo in doubt) [CC-410, Methyl-(4S)-4-((3S,5S,7S,8S,10R,12R,13S,14R,17S)-3-acetoxy-7,12-diamino-10,13-dimethylhexadecahydro-1H-cyclopenta[a]phenanthren-17-yl) pentanoate]
Human NNMT; MNAM product readout, LC/MS, Fig. 4B, read-out: hNNMT MNAN Rel IC50
  IC50: 1640 nM
Human NNMT; automated solid-phase extraction and LC-MS, read-out: IC50 against human NNMT
  IC50: 1600 nM
Human NNMT; hNNMT SAH Rel IC50, SAH product readout, LC/MS, Fig. 4B
  IC50: 1700 nM
DNMT1
  IC50* (M) DNMT1: no inhibition or compound activity that could not be fitted to an IC50 curve
DNMT3a
  IC50* (M) DNMT3a: no inhibition or compound activity that could not be fitted to an IC50 curve
DNMT3b
  IC50* (M) DNMT3b: no inhibition or compound activity that could not be fitted to an IC50 curve
DOT1L
  IC50* (M) DOT1L: no inhibition or compound activity that could not be fitted to an IC50 curve
EZH2 Complex
  IC50* (M) EZH2 Complex: no inhibition or compound activity that could not be fitted to an IC50 curve
NRMT1
  IC50* (M) NRMT1: no inhibition or compound activity that could not be fitted to an IC50 curve
PRMT5/MEP50
  IC50* (M) PRMT5/MEP50: no inhibition or compound activity that could not be fitted to an IC50 curve
SET1b Complex; 10-dose, threefold dilution, CC-410 from 300 μM, control from 100 μM, substrate Core Histone, read-out: IC50* (M) SET1b Complex
  IC50: 0.000121 M
SET1b Complex; text and Fig. 4D curve fit, read-out: IC50 for SET1b Complex
  IC50: 0.00012 M
SMYD2
  IC50: 34.3 µM
3T3-L1 cells
  cell viability: only a slight reduction in cell viability
